Test results: publication PMC10014103, “The immunometabolite itaconate stimulates OXGR1 to promote mucociliary clearance during the pulmonary innate immune response” (The Journal of Clinical Investigation, 2023)

Legend:
OXGR1 = test: ERK phosphorylation by Western blotting in OXGR1-expressing HEK293 cells; format: cell-based, human; details: 5 μM to 1 mM for 15 minutes
Procedure: HEK293 cells were transiently transfected with plasmids expressing empty vector or FLAG-tagged OXGR1 using PolyJet reagent. The medium was switched to serum-free DMEM 36 hours after transfection. After serum starvation for another 12 hours, cells were stimulated with the indicated ligand and lysed in Laemmli buffer. Protein lysate was separated on standard SDS-PAGE, transferred onto a PVDF membrane, and then subjected to immunoblotting with the following antibodies: anti–p-ERK (catalog 4370, Cell Signaling Technology); anti-Flag (catalog 14793, Cell Signaling Technology); anti-IRG1/anti-ACOD1 (catalog 19857, Cell Signaling Technology); anti-Myc (catalog 2278, Cell Signaling Technology); anti-ERK (catalog 67170-1-Ig, Proteintech); and anti-actin (catalog A00702, GenScript).

[1] = test system: human OXGR1 orthosteric site mutants; test: Aequorin assay in HEK293 cells expressing mutant human OXGR1; format: cell-based; details: effect of mutation on ligand-stimulated calcium response
Procedure: Thirty-six hours after transfection, cells were maintained in serum-free medium for 12 hours and then loaded with 5 μM coelenterazine for 3 hours. Cells were trypsinized and resuspended at a density of 5 × 10^5 cells/mL in HBSS supplemented with 10 mM HEPES and 0.5% BSA. Cell suspensions of 100 μL were aliquoted into 96-well plates.

Compound: C=C(CC(=O)O)C(=O)O [ITA, itaconate]
- phosphorylation of ERK (OXGR1): dose-dependently induced
- calcium response, mutants C106A, R110A, H258A, R261A, I265A [1]: completely abolished
- calcium response, mutants H114A, Y118F, I121A, I285A, R288A [1]: dramatically impaired
